Measured values taken from PubChem BioAssay AID2060894 (Molecular Pharmacology Branch, DTP, NCI, 2025).
pIC50: −log10 of the molar value. Blank lines part the entries; values can stand above or below the compound they belong to.

Test system: K12877-001-R-J1-PDC complex spheroid viability
Assay: Anticancer human tumor K12877-001-R-J1-PDC patient-derived lung adenocarcinoma cell line growth inhibition [RAS]
Conditions: for pIC50: curve of first compound; for viability, T/C: stronger effect = lower value
How it was run: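 Tumour cells grown as complex spheroids with HUVEC endothelial cells and mesenchymal stem cells, treated with RAS pathway inhibitor combinations. Each agent spans half-log steps from near clinical Cmax, or 10 microM where Cmax is unknown.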

[1] = second compound 0.000949 µM, first compound 0.0316 µM
[2] = second compound 0.000949 µM, first compound 0.1 µM
[3] = second compound 0.000949 µM, first compound 0.316 µM
[4] = second compound 0.000949 µM, first compound 1 µM
[5] = second compound 0.003 µM, first compound 0.0316 µM
[6] = second compound 0.003 µM, first compound 0.1 µM
[7] = second compound 0.003 µM, first compound 0.316 µM
[8] = second compound 0.003 µM, first compound 1 µM
[9] = second compound 0.00949 µM, first compound 0.0316 µM
[10] = second compound 0.00949 µM, first compound 0.1 µM
[11] = second compound 0.00949 µM, first compound 0.316 µM
[12] = second compound 0.00949 µM, first compound 1 µM
[13] = second compound 0.03 µM, first compound 0.0316 µM
[14] = second compound 0.03 µM, first compound 0.1 µM
[15] = second compound 0.03 µM, first compound 0.316 µM
[16] = second compound 0.03 µM, first compound 1 µM
[17] = second compound 0.0949 µM, first compound 0.0316 µM
[18] = second compound 0.0949 µM, first compound 0.1 µM
[19] = second compound 0.0949 µM, first compound 0.316 µM
[20] = second compound 0.0949 µM, first compound 1 µM
[21] = second compound 0.3 µM, first compound 0.0316 µM
[22] = second compound 0.3 µM, first compound 0.1 µM
[23] = second compound 0.3 µM, first compound 0.316 µM
[24] = second compound 0.3 µM, first compound 1 µM
[25] = second compound 0.000949 µM, first compound 3.16 µM
[26] = second compound 0.000949 µM, first compound 10 µM
[27] = second compound 0.003 µM, first compound 3.16 µM
[28] = second compound 0.003 µM, first compound 10 µM
[29] = second compound 0.00949 µM, first compound 3.16 µM
[30] = second compound 0.00949 µM, first compound 10 µM
[31] = second compound 0.03 µM, first compound 3.16 µM
[32] = second compound 0.03 µM, first compound 10 µM
[33] = second compound 0.0949 µM, first compound 3.16 µM
[34] = second compound 0.0949 µM, first compound 10 µM
[35] = second compound 0.3 µM, first compound 3.16 µM
[36] = second compound 0.3 µM, first compound 10 µM
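Note: spheroids exposed to agents for one week before readout.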

- pIC50 (second compound 0.000949 µM): 6.54
- pIC50 (second compound 0.003 µM): 6.64
- pIC50 (second compound 0.00949 µM): 6.81
- pIC50 (second compound 0.03 µM): 6.84
- pIC50 (second compound 0.0949 µM): 6.88
- pIC50 (second compound 0.3 µM): 6.80
Compound: CCN1CCN(Cc2ccc(Nc3ncc(F)c(-c4cc(F)c5nc(C)n(C(C)C)c5c4)n3)nc2)CC1 + CCn1c(-c2cccnc2C(C)OC)c2c3cc(ccc31)N1CCOC(CC(NC(=O)C(C(C)C)N(C)C(=O)C3(F)CCN(C(=O)C#CC(C)(C)N(C)C)CC3)C(=O)N3CCCC(N3)C(=O)OCC(C)(C)C2)C1
- viability, T/C (second compound 0.000949 µM, first compound 0.00316 µM): 73.5%
- viability, T/C (second compound 0.000949 µM, first compound 0.01 µM): 80.4%
- viability, T/C [1]: 74.3%
- viability, T/C [2]: 61.5%
- viability, T/C [3]: 50.1%
- viability, T/C [4]: 31.5%
- viability, T/C (second compound 0.003 µM, first compound 0.00316 µM): 71.8%
- viability, T/C (second compound 0.003 µM, first compound 0.01 µM): 76.9%
- viability, T/C [5]: 68.8%
- viability, T/C [6]: 69.9%
- viability, T/C [7]: 42.3%
- viability, T/C [8]: 28.9%
- viability, T/C (second compound 0.00949 µM, first compound 0.00316 µM): 66%
- viability, T/C (second compound 0.00949 µM, first compound 0.01 µM): 77.1%
- viability, T/C [9]: 66.5%
- viability, T/C [10]: 56.8%
- viability, T/C [11]: 39.2%
- viability, T/C [12]: 34%
- viability, T/C (second compound 0.03 µM, first compound 0.00316 µM): 74.2%
- viability, T/C (second compound 0.03 µM, first compound 0.01 µM): 76.5%
- viability, T/C [13]: 69.6%
- viability, T/C [14]: 51.8%
- viability, T/C [15]: 45.4%
- viability, T/C [16]: 36.3%
- viability, T/C (second compound 0.0949 µM, first compound 0.00316 µM): 76.8%
- viability, T/C (second compound 0.0949 µM, first compound 0.01 µM): 65.5%
- viability, T/C [17]: 58.5%
- viability, T/C [18]: 61.6%
- viability, T/C [19]: 36.4%
- viability, T/C [20]: 25.4%
- viability, T/C (second compound 0.3 µM, first compound 0.00316 µM): 67.2%
- viability, T/C (second compound 0.3 µM, first compound 0.01 µM): 59.1%
- viability, T/C [21]: 59.3%
- viability, T/C [22]: 58%
- viability, T/C [23]: 39.3%
- viability, T/C [24]: 27.4%

- pIC50 (second compound 0.000949 µM): 5.21
- pIC50 (second compound 0.003 µM): 5.73
- pIC50 (second compound 0.00949 µM): 5.58
- pIC50 (second compound 0.03 µM): 6.06
- pIC50 (second compound 0.0949 µM): 5.92
- pIC50 (second compound 0.3 µM): 6.37
Compound: Cc1nc(N2CCC3(CC2)COC(C)C3N)c(CO)nc1Sc1ccnc(N)c1Cl (stereo unspecified) + CCn1c(-c2cccnc2C(C)OC)c2c3cc(ccc31)N1CCOC(CC(NC(=O)C(C(C)C)N(C)C(=O)C3(F)CCN(C(=O)C#CC(C)(C)N(C)C)CC3)C(=O)N3CCCC(N3)C(=O)OCC(C)(C)C2)C1
- viability, T/C [1]: 83.6%
- viability, T/C [2]: 71.1%
- viability, T/C [3]: 71.5%
- viability, T/C [4]: 62.5%
- viability, T/C [25]: 52.8%
- viability, T/C [26]: 47.3%
- viability, T/C [5]: 73.6%
- viability, T/C [6]: 66.2%
- viability, T/C [7]: 69.8%
- viability, T/C [8]: 55.6%
- viability, T/C [27]: 45.6%
- viability, T/C [28]: 44%
- viability, T/C [9]: 76.4%
- viability, T/C [10]: 76%
- viability, T/C [11]: 57.8%
- viability, T/C [12]: 57.4%
- viability, T/C [29]: 50.2%
- viability, T/C [30]: 42.1%
- viability, T/C [13]: 83.2%
- viability, T/C [14]: 73.5%
- viability, T/C [15]: 59.2%
- viability, T/C [16]: 49.4%
- viability, T/C [31]: 40.7%
- viability, T/C [32]: 36.5%
- viability, T/C [17]: 72.6%
- viability, T/C [18]: 70.8%
- viability, T/C [19]: 58.3%
- viability, T/C [20]: 48.5%
- viability, T/C [33]: 46.4%
- viability, T/C [34]: 33.8%
- viability, T/C [21]: 57.1%
- viability, T/C [22]: 67.9%
- viability, T/C [23]: 53.3%
- viability, T/C [24]: 38.3%
- viability, T/C [35]: 37.5%
- viability, T/C [36]: 31.2%

- pIC50 (second compound 0.000949 µM): 6.24
- pIC50 (second compound 0.003 µM): 6.29
- pIC50 (second compound 0.00949 µM): 6.65
- pIC50 (second compound 0.03 µM): 6.84
- pIC50 (second compound 0.0949 µM): 6.87
- pIC50 (second compound 0.3 µM): 7.17
Compound: NC1c2ccccc2OC12CCN(c1cnc3c(N4CCCc5ncccc54)n[nH]c3n1)CC2 (stereo unspecified) + CCn1c(-c2cccnc2C(C)OC)c2c3cc(ccc31)N1CCOC(CC(NC(=O)C(C(C)C)N(C)C(=O)C3(F)CCN(C(=O)C#CC(C)(C)N(C)C)CC3)C(=O)N3CCCC(N3)C(=O)OCC(C)(C)C2)C1
- viability, T/C [1]: 69%
- viability, T/C [2]: 67.8%
- viability, T/C [3]: 56%
- viability, T/C [4]: 43.8%
- viability, T/C [25]: 38.5%
- viability, T/C [26]: 34%
- viability, T/C [5]: 65.8%
- viability, T/C [6]: 62.2%
- viability, T/C [7]: 52.5%
- viability, T/C [8]: 45.4%
- viability, T/C [27]: 37%
- viability, T/C [28]: 30%
- viability, T/C [9]: 76.9%
- viability, T/C [10]: 54.1%
- viability, T/C [11]: 49.5%
- viability, T/C [12]: 38.5%
- viability, T/C [29]: 37.6%
- viability, T/C [30]: 28.9%
- viability, T/C [13]: 65.9%
- viability, T/C [14]: 50.9%
- viability, T/C [15]: 44.9%
- viability, T/C [16]: 39.3%
- viability, T/C [31]: 34.5%
- viability, T/C [32]: 30.8%
- viability, T/C [17]: 62.4%
- viability, T/C [18]: 52.1%
- viability, T/C [19]: 41.8%
- viability, T/C [20]: 38.3%
- viability, T/C [33]: 39.1%
- viability, T/C [34]: 27.4%
- viability, T/C [21]: 58.3%
- viability, T/C [22]: 46.9%
- viability, T/C [23]: 35%
- viability, T/C [24]: 29.1%
- viability, T/C [35]: 29.8%
- viability, T/C [36]: 22.8%
